In ChEMBL document CHEMBL4837240 (J Med Chem, 2021):
pIC50: −log10 of the molar value. The source made the active and inactive calls. The rule behind the calls is not given here.

Columns and labels:
MDA-MB-231 [1] = assay: Antimigratory activity against human MDA-MB-231 cells assessed as reduction in cell migration incubated for 12 hrs by transwell assay; format: functional, cell-based
[2] = target: T1, Vascular endothelial growth factor receptor 3 (Homo sapiens, UniProt P35916); assay: Inhibition of human FLT4/VEGFR3
T1 sequence (P35916 whole entry): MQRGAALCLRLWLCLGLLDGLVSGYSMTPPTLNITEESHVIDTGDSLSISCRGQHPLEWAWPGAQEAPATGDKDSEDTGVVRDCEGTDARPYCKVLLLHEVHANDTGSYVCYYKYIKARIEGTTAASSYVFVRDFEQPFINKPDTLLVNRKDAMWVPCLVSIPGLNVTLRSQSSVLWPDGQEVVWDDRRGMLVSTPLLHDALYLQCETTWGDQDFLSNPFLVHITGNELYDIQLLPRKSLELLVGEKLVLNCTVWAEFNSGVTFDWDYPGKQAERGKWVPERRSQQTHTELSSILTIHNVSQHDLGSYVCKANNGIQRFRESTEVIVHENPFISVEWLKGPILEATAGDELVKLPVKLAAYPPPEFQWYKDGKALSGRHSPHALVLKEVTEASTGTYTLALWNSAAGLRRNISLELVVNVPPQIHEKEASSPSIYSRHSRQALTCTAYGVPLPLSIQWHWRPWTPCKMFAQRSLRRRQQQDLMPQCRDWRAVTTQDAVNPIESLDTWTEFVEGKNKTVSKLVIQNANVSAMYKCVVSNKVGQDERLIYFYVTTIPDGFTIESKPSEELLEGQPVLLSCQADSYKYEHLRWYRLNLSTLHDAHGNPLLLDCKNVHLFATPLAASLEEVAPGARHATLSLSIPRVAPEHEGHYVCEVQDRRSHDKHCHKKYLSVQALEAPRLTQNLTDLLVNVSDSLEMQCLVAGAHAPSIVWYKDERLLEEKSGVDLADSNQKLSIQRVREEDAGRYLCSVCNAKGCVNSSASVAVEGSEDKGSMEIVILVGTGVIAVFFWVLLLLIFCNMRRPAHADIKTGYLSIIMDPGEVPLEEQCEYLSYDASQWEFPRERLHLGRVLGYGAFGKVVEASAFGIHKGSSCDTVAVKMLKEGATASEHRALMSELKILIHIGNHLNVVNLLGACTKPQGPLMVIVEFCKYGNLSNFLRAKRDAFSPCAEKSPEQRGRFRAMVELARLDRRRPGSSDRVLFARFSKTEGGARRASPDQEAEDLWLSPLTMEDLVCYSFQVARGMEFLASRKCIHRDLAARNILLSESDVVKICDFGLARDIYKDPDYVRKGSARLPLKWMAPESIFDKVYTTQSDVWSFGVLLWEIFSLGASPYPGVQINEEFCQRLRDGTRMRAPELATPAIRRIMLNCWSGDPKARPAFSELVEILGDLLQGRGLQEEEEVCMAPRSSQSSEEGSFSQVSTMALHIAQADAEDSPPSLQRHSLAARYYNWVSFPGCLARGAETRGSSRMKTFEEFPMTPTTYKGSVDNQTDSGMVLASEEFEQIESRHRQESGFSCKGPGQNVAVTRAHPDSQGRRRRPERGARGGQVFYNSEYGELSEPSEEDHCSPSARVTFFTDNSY

[3] = target: T1, Vascular endothelial growth factor receptor 3; assay: Inhibition of VEGFR3 in human MDA-MB-231 cells assessed as inhibition of AKT phosphorylation at 2.5 uM incubated for 24 hrs by Western blot analysis; format: cell-based
MDA-MB-231 [4] = assay: Anticancer activity against human MDA-MB-231 cells assessed as cell viability incubated for 48 hrs by MTT assay; details: MDA-MB-231, 48 h
Misshapen-like kinase 1 = Misshapen-like kinase 1 (Homo sapiens, UniProt Q8N4C8); assay: Inhibition of human MINK
Misshapen-like kinase 1, sequence (Q8N4C8 whole entry): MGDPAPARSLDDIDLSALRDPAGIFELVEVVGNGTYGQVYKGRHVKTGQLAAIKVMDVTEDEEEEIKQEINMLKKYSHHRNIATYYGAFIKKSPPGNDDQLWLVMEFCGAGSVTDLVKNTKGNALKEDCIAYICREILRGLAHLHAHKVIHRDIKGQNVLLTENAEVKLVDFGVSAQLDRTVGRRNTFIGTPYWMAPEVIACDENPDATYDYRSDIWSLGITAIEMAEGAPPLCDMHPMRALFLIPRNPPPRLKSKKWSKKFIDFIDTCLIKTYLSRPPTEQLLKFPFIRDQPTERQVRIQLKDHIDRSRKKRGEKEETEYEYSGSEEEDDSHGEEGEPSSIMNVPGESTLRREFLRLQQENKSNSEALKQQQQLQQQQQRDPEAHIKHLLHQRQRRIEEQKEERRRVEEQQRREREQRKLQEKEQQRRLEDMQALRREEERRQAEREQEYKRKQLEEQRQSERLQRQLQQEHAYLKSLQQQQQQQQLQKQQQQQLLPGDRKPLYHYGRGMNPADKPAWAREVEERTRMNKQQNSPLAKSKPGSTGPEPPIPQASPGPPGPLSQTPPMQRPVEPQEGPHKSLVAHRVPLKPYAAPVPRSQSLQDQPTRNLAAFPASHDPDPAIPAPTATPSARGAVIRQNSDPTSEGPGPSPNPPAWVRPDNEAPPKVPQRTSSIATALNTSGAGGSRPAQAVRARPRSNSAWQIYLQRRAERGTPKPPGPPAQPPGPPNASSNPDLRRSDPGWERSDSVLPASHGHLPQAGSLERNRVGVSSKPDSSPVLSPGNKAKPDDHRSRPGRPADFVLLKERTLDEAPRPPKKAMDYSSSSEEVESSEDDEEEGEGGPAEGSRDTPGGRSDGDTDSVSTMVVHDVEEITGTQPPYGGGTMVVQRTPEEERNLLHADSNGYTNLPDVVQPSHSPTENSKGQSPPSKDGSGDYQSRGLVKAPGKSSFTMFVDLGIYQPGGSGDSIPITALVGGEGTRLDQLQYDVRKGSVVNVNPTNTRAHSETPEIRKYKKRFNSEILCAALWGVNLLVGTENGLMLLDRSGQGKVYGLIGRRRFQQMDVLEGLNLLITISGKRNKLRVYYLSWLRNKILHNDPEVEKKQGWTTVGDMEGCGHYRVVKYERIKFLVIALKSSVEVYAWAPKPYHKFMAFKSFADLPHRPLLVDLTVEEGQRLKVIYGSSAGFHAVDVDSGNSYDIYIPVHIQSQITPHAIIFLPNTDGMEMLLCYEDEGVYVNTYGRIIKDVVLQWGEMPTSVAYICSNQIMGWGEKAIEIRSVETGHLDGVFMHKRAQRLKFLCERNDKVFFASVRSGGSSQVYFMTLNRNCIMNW

[5] = target: T2, Maternal embryonic leucine zipper kinase (Homo sapiens, UniProt Q14680); assay: Inhibition of human MELK
[6] = Half life in Sprague-Dawley rat at 10 mg/kg, po by LC-MS analysis; format: ADME, organism-based; details: in vivo
[7] = Half life in Sprague-Dawley rat at 1 mg/kg, iv by LC-MS analysis; format: ADME, organism-based; details: in vivo
[8] = Apparent volume of distribution in Sprague-Dawley rat at 1 mg/kg, iv by LC-MS analysis; format: ADME, organism-based; details: in vivo, read-out: Vz
MDA-MB-231 [9] = assay: Inhibition of colony formation in human MDA-MB-231 cells at 2.5 uM incubated for 24 hrs by clonogenic assay; format: functional
[10] = target: Tyrosine-protein kinase BTK (Homo sapiens, UniProt Q06187); assay: Inhibition of human BTK
Tyrosine-protein kinase BTK, sequence (Q06187 whole entry): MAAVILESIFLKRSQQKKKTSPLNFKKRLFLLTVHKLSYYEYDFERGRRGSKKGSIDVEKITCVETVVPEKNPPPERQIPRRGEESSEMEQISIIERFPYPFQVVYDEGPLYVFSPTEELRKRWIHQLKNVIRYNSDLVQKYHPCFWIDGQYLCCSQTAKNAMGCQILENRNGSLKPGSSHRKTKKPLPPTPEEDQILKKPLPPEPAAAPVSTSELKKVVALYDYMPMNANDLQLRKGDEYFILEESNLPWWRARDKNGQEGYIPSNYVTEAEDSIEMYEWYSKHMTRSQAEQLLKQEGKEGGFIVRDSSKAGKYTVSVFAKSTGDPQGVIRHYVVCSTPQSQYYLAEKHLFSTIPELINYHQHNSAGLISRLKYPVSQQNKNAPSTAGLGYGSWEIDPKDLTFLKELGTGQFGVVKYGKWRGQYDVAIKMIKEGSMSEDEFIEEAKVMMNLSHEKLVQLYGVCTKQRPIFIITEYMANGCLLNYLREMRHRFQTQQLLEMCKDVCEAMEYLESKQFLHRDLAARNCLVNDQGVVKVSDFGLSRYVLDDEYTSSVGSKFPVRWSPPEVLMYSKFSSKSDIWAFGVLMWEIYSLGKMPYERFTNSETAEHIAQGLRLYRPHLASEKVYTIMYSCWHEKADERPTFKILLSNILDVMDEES

[11] = target: Vascular endothelial growth factor receptor 2 (Homo sapiens, UniProt P35968); assay: Inhibition of human KDR/VEGFR2
[12] = Toxicity in BALB/c mouse xenografted with MDA-MB-231 cells assessed as change in heart at 300 mg/kg, po by hematoxylin and eosin staining based analysis; format: organism-based; details: in vivo
[13] = target: Vascular endothelial growth factor receptor 1 (Homo sapiens, UniProt P17948); assay: Inhibition of human FLT1/VEGFR1 assessed as residual kinase activity at 1 uM relative to control
[14] = target: T1, Vascular endothelial growth factor receptor 3; assay: Inhibition of VEGFR3 phosphorylation in human MDA-MB-231 cells at 2.5 uM incubated for 24 hrs by Western blot analysis; format: cell-based
MDA-MB-436 [15] = assay: Induction of apoptosis in human MDA-MB-436 cells assessed as increase in apoptotic cells incubated for 24 hrs by Hoechst 33258 staining under a fluorescence microscopy; format: functional, cell-based
[16] = Antitumor activity against human MDA-MB-231 cells xenografted in BALB/c mouse assessed as tumor growth inhibition at 50 mg/kg, po relative to control; format: functional; details: read-out: TGI
Mus musculus [17] = assay: Decrease in Ki-67 level in BALB/c mouse xenografted with MDA-MB-231 cells in tumor tissue at 25 mg/kg, po by immunohistochemistry analysis; format: functional, organism-based
[18] = target: T1, Vascular endothelial growth factor receptor 3; assay: Inhibition of human FLT4/VEGFR3 assessed as residual kinase activity at 1 uM relative to control
[19] = target: T1, Vascular endothelial growth factor receptor 3; assay: Inhibition of VEGFR3 in human MDA-MB-231 cells assessed as inhibition of STAT5 phosphorylation at 2.5 uM incubated for 24 hrs by Western blot analysis; format: cell-based
MDA-MB-231 [20] = assay: Induction of apoptosis in human MDA-MB-231 cells assessed as upregulation of caspase 3 up to 10 uM incubated for 24 hrs by Western blotting analysis; format: functional, cell-based; details: dose microM <=10, time 24.0 hrs
Mus musculus [21] = assay: Decrease in LYVE-1 level in BALB/c mouse xenografted with MDA-MB-231 cells in tumor tissue at 25 mg/kg, po by immunohistochemistry analysis; format: functional, organism-based
MDA-MB-231 [22] = assay: Upregulation of E-cadherin protein expression in human MDA-MB-231 cells up to 10 uM incubated for 24 hrs by Western blot analysis; format: functional, cell-based; details: dose microM <=10, time 24.0 hrs
MDA-MB-231 [23] = assay: Induction of apoptosis in human MDA-MB-231 cells assessed as increase in apoptotic cells incubated for 24 hrs by Hoechst 33258 staining under a fluorescence microscopy; format: functional, cell-based
MDA-MB-436 [24] = assay: Downregulation of MMP2 protein expression in human MDA-MB-436 cells up to 10 uM incubated for 24 hrs by Western blot analysis; format: functional, cell-based; details: dose microM <=10, time 24.0 hrs
MDA-MB-436 [25] = assay: Induction of apoptosis in human MDA-MB-436 cells assessed as upregulation of Bax expression up to 10 uM incubated for 24 hrs by Western blotting analysis; format: functional, cell-based; details: dose microM <=10, time 24.0 hrs
[26] = target: T2, Maternal embryonic leucine zipper kinase; assay: Inhibition of human MELK assessed as residual kinase activity at 1 uM relative to control
[27] = Toxicity in BALB/c mouse xenografted with MDA-MB-231 cells assessed as change in spleen at 300 mg/kg, po by hematoxylin and eosin staining based analysis; format: organism-based; details: in vivo
HDLEC = assay: Anti-lymphangiogenic activity against human dermal lymphatic endothelial cells assessed as inhibition of VEGF-C-mediated tube formation at 100 nM incubated for 12 hrs by inverted microscopy; format: functional, tissue-based
MDA-MB-231 [28] = assay: Induction of apoptosis in human MDA-MB-231 cells assessed as upregulation of Bax expression up to 10 uM incubated for 24 hrs by Western blotting analysis; format: functional, cell-based; details: dose microM <=10, time 24.0 hrs
[29] = Toxicity in BALB/c mouse xenografted with MDA-MB-231 cells assessed as LDH level in blood at 300 mg/kg, po; format: organism-based; details: in vivo
[30] = Toxicity in BALB/c mouse xenografted with MDA-MB-231 cells assessed as change in kidney at 300 mg/kg, po by hematoxylin and eosin staining based analysis; format: organism-based; details: in vivo
[31] = target: T1, Vascular endothelial growth factor receptor 3; assay: Inhibition of VEGFR3 phosphorylation in human dermal lymphatic endothelial cells incubated for 24 hrs by Western blot analysis; format: tissue-based; details: HDLEC
[32] = Toxicity in BALB/c mouse xenografted with MDA-MB-231 cells assessed as AST level in blood at 300 mg/kg, po; format: organism-based; details: in vivo
[33] = Toxicity in BALB/c mouse xenografted with MDA-MB-231 cells assessed as ALT level in blood at 300 mg/kg, po; format: organism-based; details: in vivo
[34] = AUC (0 to infinity) in Sprague-Dawley rat at 10 mg/kg, po by LC-MS analysis; format: ADME, organism-based; set-up: route oral, time infinity, dose 10 mg/kg; details: in vivo
[35] = target: Vascular endothelial growth factor receptor 3 (Mus musculus) (UniProt P35917); assay: In vivo inhibition of VEGFR3 phosphorylation in BALB/c mouse xenografted with MDA-MB-231 cells assessed as decrease in ERK1/2 phosphorylation at 25 mg/kg, po by immunohistochemistry analysis; format: functional, organism-based
Vascular endothelial growth factor receptor 3 (Mus musculus), sequence (P35917 whole entry): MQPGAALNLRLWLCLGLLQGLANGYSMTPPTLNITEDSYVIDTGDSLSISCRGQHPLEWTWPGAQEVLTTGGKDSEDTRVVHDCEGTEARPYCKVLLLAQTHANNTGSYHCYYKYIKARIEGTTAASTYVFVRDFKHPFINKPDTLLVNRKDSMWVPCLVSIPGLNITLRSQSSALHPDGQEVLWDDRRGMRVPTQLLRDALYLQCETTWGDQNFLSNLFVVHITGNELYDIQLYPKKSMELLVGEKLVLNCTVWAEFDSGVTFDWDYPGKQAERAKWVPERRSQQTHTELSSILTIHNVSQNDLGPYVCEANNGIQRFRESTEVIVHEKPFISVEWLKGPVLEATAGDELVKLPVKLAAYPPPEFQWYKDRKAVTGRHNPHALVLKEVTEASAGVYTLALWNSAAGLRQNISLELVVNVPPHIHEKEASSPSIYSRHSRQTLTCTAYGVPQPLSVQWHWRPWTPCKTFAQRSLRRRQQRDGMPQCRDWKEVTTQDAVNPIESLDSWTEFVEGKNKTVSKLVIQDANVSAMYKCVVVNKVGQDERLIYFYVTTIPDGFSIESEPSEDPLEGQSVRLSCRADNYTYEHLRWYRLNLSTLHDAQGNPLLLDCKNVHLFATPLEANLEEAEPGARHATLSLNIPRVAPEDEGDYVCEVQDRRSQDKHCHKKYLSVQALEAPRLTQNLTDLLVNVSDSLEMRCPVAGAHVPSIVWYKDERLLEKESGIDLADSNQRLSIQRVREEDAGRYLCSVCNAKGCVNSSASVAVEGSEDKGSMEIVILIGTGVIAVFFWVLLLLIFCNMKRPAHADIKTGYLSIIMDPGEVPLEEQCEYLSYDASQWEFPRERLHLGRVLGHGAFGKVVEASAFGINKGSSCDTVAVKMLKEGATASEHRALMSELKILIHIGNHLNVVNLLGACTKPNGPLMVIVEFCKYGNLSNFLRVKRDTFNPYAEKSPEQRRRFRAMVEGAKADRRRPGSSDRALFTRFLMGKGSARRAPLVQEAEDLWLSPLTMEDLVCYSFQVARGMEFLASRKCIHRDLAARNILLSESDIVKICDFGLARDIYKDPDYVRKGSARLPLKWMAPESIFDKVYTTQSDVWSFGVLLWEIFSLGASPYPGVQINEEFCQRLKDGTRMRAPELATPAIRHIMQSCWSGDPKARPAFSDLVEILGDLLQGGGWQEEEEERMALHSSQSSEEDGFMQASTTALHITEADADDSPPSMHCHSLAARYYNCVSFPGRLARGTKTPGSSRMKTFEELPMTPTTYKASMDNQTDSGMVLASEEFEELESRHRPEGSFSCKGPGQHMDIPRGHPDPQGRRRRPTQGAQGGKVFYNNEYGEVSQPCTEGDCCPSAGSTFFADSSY

[36] = Bioavailability in Sprague-Dawley rat at 1 mg/kg, iv by LC-MS analysis; format: ADME, organism-based; details: in vivo
[37] = target: Vascular endothelial growth factor receptor 3 (Mus musculus) (UniProt P35917); assay: In vivo inhibition of VEGFR3 phosphorylation in BALB/c mouse xenografted with MDA-MB-231 cells assessed as decrease in STAT5 phosphorylation at 25 mg/kg, po by immunohistochemistry analysis; format: functional, organism-based
[38] = target: T1, Vascular endothelial growth factor receptor 3; assay: Inhibition of VEGFR3 in human MDA-MB-436 cells assessed as inhibition of AKT phosphorylation at 2.5 uM incubated for 24 hrs by Western blot analysis; format: cell-based
MDA-MB-436 [39] = assay: Induction of apoptosis in human MDA-MB-436 cells assessed as upregulation of caspase 3 up to 10 uM incubated for 24 hrs by Western blotting analysis; format: functional, cell-based; details: dose microM <=10, time 24.0 hrs

Structure (SMILES): CN1CCN(c2ccc(-c3cc4c(N5CCN(C(=O)Nc6ccc(Cl)c(C(F)(F)F)c6)CC5)ncnc4s3)cc2)CC1
- Activity (MDA-MB-231 [1]): Active
- pIC50 [2]: 6.96
- inhibition [3]: Active
- pIC50 (MDA-MB-231 [4]): 5.65
- pIC50 (Misshapen-like kinase 1): 6.47
- pIC50 [5]: 6.16
- half-life [6]: 16 h
- half-life [7]: 13.1 h
- Vd [8]: 5.4 L/kg
- inhibition at 2.5 µM (MDA-MB-231 [9]): 100%
- pIC50 [10]: 6.14
- pIC50 [11]: < 5.00
- Activity [12]: Non-Toxic
- Activity [13]: 97%
- inhibition [14]: Active
- Activity (MDA-MB-436 [15]): Dose-Dependent Effect
- inhibition in vivo at 50 mg/kg [16]: 61.9%
- Activity (Mus musculus [17]): Active
- Activity [18]: 0%
- inhibition [19]: Active
- Activity (MDA-MB-231 [20]): Active
- Activity (Mus musculus [21]): Active
- Activity (MDA-MB-231 [22]): Active
- Activity (MDA-MB-231 [23]): Dose-Dependent Effect
- Activity (MDA-MB-436 [24]): Active
- Activity (MDA-MB-436 [25]): Active
- Activity [26]: 17%
- Activity [27]: Non-Toxic
- Activity (HDLEC): Active
- Activity (MDA-MB-231 [28]): Active
- Activity [29]: Non-Toxic
- Activity [30]: Non-Toxic
- inhibition [31]: Dose-Dependent Effect
- Activity [32]: Non-Toxic
- Activity [33]: Non-Toxic
- AUC(0-inf) [34]: 12300 ng·h/mL
- Activity [35]: Active
- bioavailability [36]: 30.9%
- Activity [37]: Active
- inhibition [38]: Active
- Activity (MDA-MB-436 [39]): Active
